# In patent US20060252740A1 (priority 2005, published 2006):
# Assay: clinical
# Description: PK assessments included the following tests. […] The total number of PK samples collected was approximately 115 mL of whole blood (7-8 tablespoons). If a patient experienced a potentially drug-related SAE, additional PK samples were collected. Blood was drawn from the contralateral arm to the infusion site using an indwelling catheter to avoid multiple needle sticks. […] The blood tube was inverted several times and the tube placed in wet ice immediately pending separation of the plasma. If a catheter was used for blood collection, the fluid in the catheter was completely withdrawn prior to each sample collection and discarded. Plasma samples were kept on wet ice during collection and centrifugation. Plasma samples were split into two cryovials prior to freezing at −70° C.
# [1] = Cohorts 1 & 2, 17-AAG 100 mg/m^2, Max
# [2] = Cohorts 1 & 2, 17-AAG 100 mg/m^2, Mean
# [3] = Cohorts 1 & 2, 17-AAG 100 mg/m^2, Median
# [4] = Cohorts 1 & 2, 17-AAG 100 mg/m^2, Min
# [5] = Cohorts 3 & 4, 17-AAG 150 mg/m^2, Max
# [6] = Cohorts 3 & 4, 17-AAG 150 mg/m^2, Mean
# [7] = Cohorts 3 & 4, 17-AAG 150 mg/m^2, Median
# [8] = Cohorts 3 & 4, 17-AAG 150 mg/m^2, Min
smiles,measurement,setting,value
"C=CCNC1=C2C[C@@H](C)C[C@H](OC)[C@H](O)[C@@H](C)/C=C(\C)[C@H](OC(N)=O)[C@@H](OC)/C=C\C=C(/C)C(=O)NC(=CC1=O)C2=O [17-AAG, 17-Allylamino-17-demethoxygeldanamycin]",AUCext,[1],10.80%
same,AUCextra,[1],608.6 ng·h/mL
same,AUClast,[1],"7,248.8 ng/mL * h"
same,AUCtotal,[1],"7,857.4 ng/mL * h"
same,Cmax,[1],"2,620 ng/mL"
same,MRT,[1],6.04 h
same,Tmax,[1],3 h
same,t1/2,[1],5.16 h
same,AUCext,[2],6%
same,AUCtotal,[2],"3,805 ng/mL * h"
same,Clearance,[2],28.63 L/h/m^2
same,Vss,[2],93.88 L/m^2
same,Vz,[2],104.58 L/m^2
same,AUCext,[3],6.10%
same,AUCtotal,[3],"3,513.8 ng/mL * h"
same,Clearance,[3],28.46 L/h/m^2
same,Vss,[3],79.65 L/m^2
same,Vz,[3],99.17 L/m^2
same,AUCext,[4],2.54%
same,AUCextra,[4],87.9 ng·h/mL
same,AUClast,[4],"2,231.7 ng/mL * h"
same,AUCtotal,[4],"2,380.5 ng/mL * h"
same,Cmax,[4],755 ng/mL
same,MRT,[4],2.37 h
same,Tmax,[4],0.5 h
same,t1/2,[4],1.72 h
same,AUCext,[5],10.5%
same,AUCextra,[5],595 ng·h/mL
same,AUClast,[5],"17,650 ng/mL * h"
same,AUCtotal,[5],"18,246 ng/mL * h"
same,Cmax,[5],"9,540 ng/mL"
same,MRT,[5],6.0 h
same,Tmax,[5],2.17 h
same,t1/2,[5],5.7 h
same,AUCext,[6],5%
same,AUCtotal,[6],"6,030 ng/mL * h"
same,Clearance,[6],28.94 L/h/m^2
same,Vss,[6],80.89 L/m^2
same,Vz,[6],94.79 L/m^2
same,AUCext,[7],3.8%
same,AUCtotal,[7],"5,071 ng/mL * h"
same,Clearance,[7],29.6 L/h/m^2
same,Vss,[7],84.3 L/m^2
same,Vz,[7],93.7 L/m^2
same,AUCext,[8],0.9%
same,AUCextra,[8],54 ng·h/mL
same,AUClast,[8],"3,152 ng/mL * h"
same,AUCtotal,[8],"3,294 ng/mL * h"
same,Cmax,[8],"1,830 ng/mL"
same,MRT,[8],1.5 h
same,Tmax,[8],0.5 h
same,t1/2,[8],1.6 h
same,Total systemic clearance,cohorts 1-4 combined,28.83±8.51 L/h/m^2
same,distributive volume VSS,cohorts 1-4 combined,85.25±31.60 L/m^2
same,distributive volume VZ,cohorts 1-4 combined,98.05±36.41 L/m^2
same,Clearance,"human, in vivo, 100 mg/m2",924 mL/min
same,Vd,"human, in vivo, 100 mg/m2, Vss, Cohorts 1 & 2, 17-AAG 100 mg/m^2, Median",159 L
same,half-life,"human, in vivo, 150 mg/m2",2.2 h
same,Vd,"human, in vivo, 150 mg/m2, Vss, Cohorts 3 & 4, 17-AAG 150 mg/m^2, Mean",143 L
same,Vd,"human, in vivo, 150 mg/m2, Vz, Cohorts 3 & 4, 17-AAG 150 mg/m^2, Median",172 L
same,Vd,"human, in vivo, distributive volume VZ, cohorts 1-4 combined",175 ± 68.2 L
same,AUC,"human, plasma, intravenous, 100 mg/m2, AUCextra, Cohorts 1 & 2, 17-AAG 100 mg/m^2, Mean",225 ng·h/mL
same,AUC,"human, plasma, intravenous, 100 mg/m2, AUCextra, Cohorts 1 & 2, 17-AAG 100 mg/m^2, Median",166 ng·h/mL
same,AUC(0-t),"human, plasma, intravenous, 100 mg/m2, AUClast, Cohorts 1 & 2, 17-AAG 100 mg/m^2, Mean",3580 ng·h/mL
same,AUC(0-t),"human, plasma, intravenous, 100 mg/m2, AUClast, Cohorts 1 & 2, 17-AAG 100 mg/m^2, Median",3350 ng·h/mL
same,Clearance,"human, plasma, intravenous, 100 mg/m2, Clearance, Cohorts 1 & 2, 17-AAG 100 mg/m^2, Mean",879 mL/min
same,Cmax,"human, plasma, intravenous, 100 mg/m2, Cmax, Cohorts 1 & 2, 17-AAG 100 mg/m^2, Mean",1790 ng/mL
same,Cmax,"human, plasma, intravenous, 100 mg/m2, Cmax, Cohorts 1 & 2, 17-AAG 100 mg/m^2, Median",1740 ng/mL
same,MRT,"human, plasma, intravenous, 100 mg/m2, MRT, Cohorts 1 & 2, 17-AAG 100 mg/m^2, Mean",3.32 h
same,MRT,"human, plasma, intravenous, 100 mg/m2, MRT, Cohorts 1 & 2, 17-AAG 100 mg/m^2, Median",2.89 h
same,Tmax,"human, plasma, intravenous, 100 mg/m2, Tmax, Cohorts 1 & 2, 17-AAG 100 mg/m^2, Mean",1 h
same,Tmax,"human, plasma, intravenous, 100 mg/m2, Tmax, Cohorts 1 & 2, 17-AAG 100 mg/m^2, Median",1 h
same,Vd,"human, plasma, intravenous, 100 mg/m2, Vss, Cohorts 1 & 2, 17-AAG 100 mg/m^2, Mean",174 L
same,Vd,"human, plasma, intravenous, 100 mg/m2, Vz, Cohorts 1 & 2, 17-AAG 100 mg/m^2, Mean",193 L
same,Vd,"human, plasma, intravenous, 100 mg/m2, Vz, Cohorts 1 & 2, 17-AAG 100 mg/m^2, Median",188 L
same,half-life,"human, plasma, intravenous, 100 mg/m2, t1/2, Cohorts 1 & 2, 17-AAG 100 mg/m^2, Mean",2.49 h
same,half-life,"human, plasma, intravenous, 100 mg/m2, t1/2, Cohorts 1 & 2, 17-AAG 100 mg/m^2, Median",2.29 h
same,AUC,"human, plasma, intravenous, 150 mg/m2, AUCextra, Cohorts 3 & 4, 17-AAG 150 mg/m^2, Mean",256 ng·h/mL
same,AUC,"human, plasma, intravenous, 150 mg/m2, AUCextra, Cohorts 3 & 4, 17-AAG 150 mg/m^2, Median",199 ng·h/mL
same,AUC(0-t),"human, plasma, intravenous, 150 mg/m2, AUClast, Cohorts 3 & 4, 17-AAG 150 mg/m^2, Mean",5770 ng·h/mL
same,AUC(0-t),"human, plasma, intravenous, 150 mg/m2, AUClast, Cohorts 3 & 4, 17-AAG 150 mg/m^2, Median",4870 ng·h/mL
same,Clearance,"human, plasma, intravenous, 150 mg/m2, Clearance, Cohorts 3 & 4, 17-AAG 150 mg/m^2, Mean",850 mL/min
same,Clearance,"human, plasma, intravenous, 150 mg/m2, Clearance, Cohorts 3 & 4, 17-AAG 150 mg/m^2, Median",843 mL/min
same,Cmax,"human, plasma, intravenous, 150 mg/m2, Cmax, Cohorts 3 & 4, 17-AAG 150 mg/m^2, Mean",3470 ng/mL
same,Cmax,"human, plasma, intravenous, 150 mg/m2, Cmax, Cohorts 3 & 4, 17-AAG 150 mg/m^2, Median",2740 ng/mL
same,MRT,"human, plasma, intravenous, 150 mg/m2, MRT, Cohorts 3 & 4, 17-AAG 150 mg/m^2, Mean",2.89 h
same,MRT,"human, plasma, intravenous, 150 mg/m2, MRT, Cohorts 3 & 4, 17-AAG 150 mg/m^2, Median",2.9 h
same,Tmax,"human, plasma, intravenous, 150 mg/m2, Tmax, Cohorts 3 & 4, 17-AAG 150 mg/m^2, Mean",1 h
same,Tmax,"human, plasma, intravenous, 150 mg/m2, Tmax, Cohorts 3 & 4, 17-AAG 150 mg/m^2, Median",0.97 h
same,Vd,"human, plasma, intravenous, 150 mg/m2, Vss, Cohorts 3 & 4, 17-AAG 150 mg/m^2, Median",151 L
same,Vd,"human, plasma, intravenous, 150 mg/m2, Vz, Cohorts 3 & 4, 17-AAG 150 mg/m^2, Mean",166 L
same,half-life,"human, plasma, intravenous, 150 mg/m2, t1/2, Cohorts 3 & 4, 17-AAG 150 mg/m^2, Mean",2.4 h
same,half-life,"human, plasma, intravenous, Terminal elimination half-life, cohorts 1-4 combined",2.43 ± 0.9 h
same,Clearance,"human, plasma, intravenous, Total systemic clearance, cohorts 1-4 combined",860 mL/min
same,Vd,"human, plasma, intravenous, distributive volume VSS, cohorts 1-4 combined",153 ± 62.3 L
